These results are taken from patent US9850283B2, “Macrocyclic inhibitors of the PD-1/PD-L1 and CD80(B7-1)/PD-L1 protein/protein interactions” (BRISTOL-MYERS SQUIBB COMPANY, priority 2013, dated 2017).

Read-outs that look alike come from different tables or passages of the source. Positions of bridges follow the written chain, without caps; N, C: chain ends. Non-standard residues stand in square brackets, D forms with d. Residues, ends and D or L forms follow the SMILES beside them. Phe(3,5-F2) = N[C@@H](Cc1cc(F)cc(F)c1)C(=O)O; Bta = N[C@@H](Cc1csc2ccccc12)C(=O)O; Hyp = O=C(O)[C@@H]1C[C@@H](O)CN1; NMeNle = CCCC[C@H](NC)C(=O)O; NMeA = CN[C@@H](C)C(=O)O; Orn = NCCC[C@H](N)C(=O)O; Dab = NCC[C@H](N)C(=O)O; Dap = NC[C@H](N)C(=O)O

One experiment addresses T1, Human PD-L1/PD-1 (Homo sapiens, UniProt Q9NZQ7).
T1 construct: made in house; host or cells: HEK293T
Description: HTRF PD-1-Ig/PD-L1-His binding assay (human PD-L1). The note with it: cluster symbol; read-out: HTRF IC50 cluster. The method, boiled down: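 Ig- and His-fused extracellular PD-1/PD-L1 binding in BSA/Tween-20 dPBS. HTRF with Eu anti-Ig (1 nM final) and APC anti-His (20 nM final).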

For experiment [1], the target named is T2, LK35.2-hPD-L1 cells / PE-labeled PD-1-Ig (Homo sapiens, UniProt Q9NZQ7).
T2 construct: expressed in transfected cells; host or cells: LK35.2 mouse B cell line
T2 sequence (Q9NZQ7 19-290): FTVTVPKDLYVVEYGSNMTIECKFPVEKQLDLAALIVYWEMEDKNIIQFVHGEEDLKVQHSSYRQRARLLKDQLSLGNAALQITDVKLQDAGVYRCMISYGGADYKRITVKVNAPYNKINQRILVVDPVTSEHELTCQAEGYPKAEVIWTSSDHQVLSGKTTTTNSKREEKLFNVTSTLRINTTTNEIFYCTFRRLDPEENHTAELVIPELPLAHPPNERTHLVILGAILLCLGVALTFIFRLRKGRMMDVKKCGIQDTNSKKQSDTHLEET
Description: LK35.2-hPD-L1 cell binding high-content screening assay. It counts as cell-based. The note with it: cluster symbol, read-out: CBA IC50 cluster. The method, boiled down:
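Compound effect on PD-1/PD-L1 binding is measured by imaging cell-associated phycoerythrin signal. Human PD-1-Ig (PE on Ig tag, 1 nM final) is applied with compound to a murine B cell line overexpressing human PD-L1 for 1 h at 37 °C in serum-containing RPMI.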

Where [2] appears, read: cell binding assay, cell line not given.
[3] abbreviates: cell line of CBA not given (LK35.2-hPD-L1 or 293T-hPD-L1).

T1 sequence (Q9NZQ7 with tags, fused parts or gaps): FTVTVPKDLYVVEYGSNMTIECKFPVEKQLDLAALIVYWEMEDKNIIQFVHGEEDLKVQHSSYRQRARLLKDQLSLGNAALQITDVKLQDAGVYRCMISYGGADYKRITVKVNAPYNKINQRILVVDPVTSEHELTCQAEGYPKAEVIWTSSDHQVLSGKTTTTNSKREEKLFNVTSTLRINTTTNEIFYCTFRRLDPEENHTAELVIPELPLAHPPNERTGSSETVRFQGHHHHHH

In the case of `CCCC[C@H]1C(=O)N(C)[C@@H](CCCC)C(=O)N[C@@H](CCCNC(=N)N)C(=O)N[C@H](C(=O)NCC(=O)NCC(N)=O)CSCC(=O)N[C@@H](Cc2ccc(O)cc2)C(=O)N(C)[C@@H](C)C(=O)N[C@@H](CC(N)=O)C(=O)N2CCC[C@H]2C(=O)N[C@@H](Cc2cnc[nH]2)C(=O)N[C@@H](CC(C)C)C(=O)N2CCC[C@H]2C(=O)N[C@@H](Cc2c[nH]c3ccccc23)C(=O)N[C@@H](CO)C(=O)N[C@@H](Cc2c[nH]c3ccccc23)C(=O)N1C` [Example 6018] ({CH2CO}-Y[NMeA]NPHLPWSW[NMeNle][NMeNle]RCGG-NH2; thioether N-14), the IC50 at Human PD-L1/PD-1 fell in the range of 0.385 to 6.74 nM; in experiment [1] (setting [2]), 0.158 to 4.71 nM.
Consider `CCCC[C@H]1C(=O)N2CCC[C@@H]2C(=O)N[C@@H](CCCNC(=N)N)C(=O)N[C@H](C(=O)NCC(N)=O)CSCC(=O)N[C@@H](Cc2ccc(O)cc2)C(=O)N(C)[C@@H](C)C(=O)N[C@@H](CC(N)=O)C(=O)N2CCC[C@H]2C(=O)N[C@@H](Cc2cnc[nH]2)C(=O)N[C@@H](CC(C)C)C(=O)N2CCC[C@H]2C(=O)N[C@@H](Cc2c[nH]c3ccccc23)C(=O)N[C@@H](CO)C(=O)N[C@@H](Cc2csc3ccccc23)C(=O)N1C` [Example 5004] ({CH2CO}-Y[NMeA]NPHLPWS[Bta][NMeNle][dP]RCG-NH2; thioether N-14), for which the IC50 fell in the range of 6.76 to 30.3 nM at Human PD-L1/PD-1 and 4.78 to 72.9 nM in experiment [1] (setting [2]).
The corresponding values for `CCCC[C@H]1C(=O)N(C)[C@@H](CCCC)C(=O)N[C@@H](CCCNC(=N)N)C(=O)N[C@H](C(=O)NCC(N)=O)CSCC(=O)N[C@@H](Cc2ccc(O)cc2)C(=O)N(C)[C@@H](C)C(=O)N[C@@H](CN)C(=O)N2CCC[C@H]2C(=O)N[C@@H](Cc2c[nH]cn2)C(=O)N[C@@H](CCC(=O)O)C(=O)N2C[C@H](O)C[C@H]2C(=O)N[C@@H](Cc2c[nH]c3ccccc23)C(=O)N[C@@H](CO)C(=O)N[C@@H](Cc2c[nH]c3ccccc23)C(=O)N1C` [Example 5123] ({CH2CO}-Y[NMeA][Dap]PHE[Hyp]WSW[NMeNle][NMeNle]RCG-NH2; thioether N-14) are 6.76 to 30.3 nM and 4.78 to 72.9 nM.
In the case of `CCCC[C@H]1C(=O)N(C)[C@@H](CCCC)C(=O)N[C@@H](CCCNC(=N)N)C(=O)N[C@H](C(=O)NCC(N)=O)CSCC(=O)N[C@@H](Cc2cc(F)cc(F)c2)C(=O)N(C)[C@@H](C)C(=O)N[C@@H](CC(N)=O)C(=O)N2CCC[C@H]2C(=O)N[C@@H](Cc2cnc[nH]2)C(=O)N[C@@H](CC(C)C)C(=O)N2C[C@H](O)C[C@H]2C(=O)N[C@@H](Cc2c[nH]c3ccccc23)C(=O)N[C@@H](CO)C(=O)N[C@@H](Cc2c[nH]c3ccccc23)C(=O)N1C` [Example 7051] ({CH2CO}-[Phe(3,5-F2)][NMeA]NPHL[Hyp]WSW[NMeNle][NMeNle]RCG-NH2; thioether N-14), the IC50 on Human PD-L1/PD-1 is 6.76 to 30.3 nM; in experiment [1] (setting [2]) it was 4.78 to 72.9 nM.
Turning to `CC(C)C[C@@H]1NC(=O)[C@H](Cc2c[nH]cn2)NC(=O)[C@@H]2CCCN2C(=O)[C@H](CC(N)=O)NC(=O)[C@H](C)N(C)C(=O)[C@H](Cc2ccccc2)NC(=O)CSC[C@@H](C(=O)NCC(N)=O)NC(=O)[C@H](CCCNC(=N)N)NC(=O)[C@H](C)N(C)C(=O)[C@H](Cc2ccc(-c3ccccc3)cc2)NC(=O)[C@H](Cc2c[nH]c3ccccc23)NC(=O)[C@H](CO)NC(=O)[C@H](Cc2c[nH]c3ccccc23)NC(=O)CN(C)C1=O` [Example 1032] (HELM PEPTIDE1{[O=C(C[*:3])[*:2]].F.[meA].N.P.H.L.[Sar].W.S.W.[O=C([C@H](Cc1ccc(-c2ccccc2)cc1)N[*:1])[*:2]].[meA].R.C.G.[am]}$PEPTIDE1,PEPTIDE1,1:R3-15:R3$$$V2.0), the IC50 is over 30.5 nM at Human PD-L1/PD-1 and over 74.3 nM in experiment [1] (setting [3]).
For the molecule `CCCC[C@H]1C(=O)N(C)[C@@H](CCCC)C(=O)N[C@@H](CCCNC(=N)N)C(=O)N[C@H](C(=O)NCC(N)=O)CSCC(=O)N[C@@H](Cc2ccc(O)cc2)C(=O)N(C)[C@@H](C)C(=O)N[C@@H](CC(N)=O)C(=O)N2CCC[C@H]2C(=O)N[C@@H](CN)C(=O)N[C@@H](CC(C)C)C(=O)N2C[C@H](O)C[C@H]2C(=O)N[C@@H](Cc2c[nH]c3ccccc23)C(=O)N[C@@H](CCC(=O)O)C(=O)N[C@@H](Cc2c[nH]c3ccccc23)C(=O)N1C` [Example 5058] ({CH2CO}-Y[NMeA]NP[Dap]L[Hyp]WEW[NMeNle][NMeNle]RCG-NH2; thioether N-14), the results for the IC50 (on Human PD-L1/PD-1; in experiment [1] (setting [2])) were 0.385 to 6.74 nM and 4.78 to 72.9 nM, respectively.
Take `CCCC[C@H]1C(=O)N2CCC[C@@H]2C(=O)N2C[C@H](O)C[C@H]2C(=O)N[C@@H](C(C)C)C(=O)N(C)[C@@H](Cc2ccccc2)C(=O)N[C@@H](Cc2ccc(O)cc2)C(=O)N(C)CC(=O)N[C@@H](Cc2c[nH]c3ccccc23)C(=O)N[C@@H](Cc2ccc(O)cc2)C(=O)N[C@@H](CC(C)C)C(=O)N[C@H](C(=O)NCC(N)=O)CSCC(=O)N[C@@H](Cc2ccccc2)C(=O)N(C)[C@@H](Cc2ccccc2)C(=O)N1C` [Example 3174] (HELM PEPTIDE1{[O=C(C[*:3])[*:2]].F.[meF].[CCCC[C@@H](C(=O)[*:2])N(C)[*:1]].[dP].[Hyp].V.[meF].Y.[Sar].W.Y.L.C.G.[am]}$PEPTIDE1,PEPTIDE1,1:R3-14:R3$$$V2.0): the results for the IC50 (on Human PD-L1/PD-1; in experiment [1] (setting [3])) were over 30.5 nM and 4.78 to 72.9 nM, respectively.
The corresponding values for `CCCC[C@H]1C(=O)N(C)CC(=O)N[C@@H](CC)C(=O)N[C@@H](C(C)C)C(=O)N(C)[C@@H](Cc2ccccc2)C(=O)N[C@@H](Cc2ccc(O)cc2)C(=O)N(C)CC(=O)N[C@@H](Cc2c[nH]c3ccccc23)C(=O)N[C@@H](Cc2ccc(O)cc2)C(=O)N[C@@H](CC(C)C)C(=O)N[C@H](C(=O)NCC(N)=O)CSCC(=O)N[C@@H](Cc2ccccc2)C(=O)N(C)[C@@H](Cc2ccccc2)C(=O)N1C` [Example 3146] (HELM PEPTIDE1{[O=C(C[*:3])[*:2]].F.[meF].[CCCC[C@@H](C(=O)[*:2])N(C)[*:1]].[Sar].[Abu].V.[meF].Y.[Sar].W.Y.L.C.G.[am]}$PEPTIDE1,PEPTIDE1,1:R3-14:R3$$$V2.0) are over 30.5 nM and 4.78 to 72.9 nM.
The corresponding values for `CCCC[C@H]1C(=O)N(C)[C@@H](CCCC)C(=O)N[C@@H](CCCN)C(=O)N[C@H](C(=O)NCC(N)=O)CSCC(=O)N[C@@H](Cc2ccc(O)cc2)C(=O)N(C)[C@@H](C)C(=O)N[C@@H](CC(=O)O)C(=O)N2CCC[C@H]2C(=O)N[C@@H](CN)C(=O)N[C@@H](CC(=O)O)C(=O)N2C[C@H](O)C[C@H]2C(=O)N[C@@H](Cc2c[nH]c3ccccc23)C(=O)N[C@@H](CCN)C(=O)N[C@@H](Cc2csc3ccccc23)C(=O)N1C` [Example 1184] ({CH2CO}-Y[NMeA]DP[Dap]D[Hyp]W[Dab][Bta][NMeNle][NMeNle][Orn]CG-NH2; thioether N-14) are 0.385 to 6.74 nM and 0.158 to 4.71 nM.
For `CCCC[C@H]1C(=O)N(C)[C@@H](CCCC)C(=O)N[C@@H](CCCN)C(=O)N[C@H](C(=O)NCC(N)=O)CSCC(=O)N[C@@H](Cc2ccc(O)cc2)C(=O)N(C)[C@@H](C)C(=O)N[C@@H](CC(=O)O)C(=O)N2CCC[C@H]2C(=O)N[C@@H](CN)C(=O)N[C@@H](CCC(=O)O)C(=O)N2C[C@H](O)C[C@H]2C(=O)N[C@@H](Cc2c[nH]c3ccccc23)C(=O)N[C@@H](CCN)C(=O)N[C@@H](Cc2csc3ccccc23)C(=O)N1C` [Example 1183] ({CH2CO}-Y[NMeA]DP[Dap]E[Hyp]W[Dab][Bta][NMeNle][NMeNle][Orn]CG-NH2; thioether N-14), the results for the IC50 (at Human PD-L1/PD-1; in experiment [1] (setting [3])) were 0.385 to 6.74 nM and 0.158 to 4.71 nM, respectively.
